Measured values published in PMC12219900, “Mechanistic insights into Bcs1-mediated mitochondrial membrane translocation of the folded Rieske protein” (The EMBO Journal, 2025).

T1: Bcs1-ATPγS2-Rip1-FeS (Saccharomyces cerevisiae, UniProt P32839)
T1 construct: Bcs1 heptamer (His6-FLAG-3C, from yeast) preloaded with E. coli-expressed Rip1-FeS (aa 83-215; TwinStrep tag, 3C-treated; plasmid named Rip1 delta81); with Cytochrome b-c1 complex subunit Rieske, mitochondrial
T1 sequence (P32839 1-456): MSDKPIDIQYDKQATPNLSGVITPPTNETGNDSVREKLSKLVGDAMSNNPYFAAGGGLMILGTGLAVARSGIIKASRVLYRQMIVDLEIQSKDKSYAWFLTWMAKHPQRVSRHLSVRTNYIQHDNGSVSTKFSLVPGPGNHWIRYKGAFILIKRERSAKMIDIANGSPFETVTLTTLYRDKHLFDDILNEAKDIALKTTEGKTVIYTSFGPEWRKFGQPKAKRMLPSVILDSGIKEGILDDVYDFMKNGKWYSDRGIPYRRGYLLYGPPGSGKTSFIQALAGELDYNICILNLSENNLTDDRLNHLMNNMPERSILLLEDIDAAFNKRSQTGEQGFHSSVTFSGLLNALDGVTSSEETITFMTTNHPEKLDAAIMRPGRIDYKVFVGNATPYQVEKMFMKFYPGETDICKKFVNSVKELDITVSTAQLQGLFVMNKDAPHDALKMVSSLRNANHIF
T1 sequence (P08067 83-215 partner): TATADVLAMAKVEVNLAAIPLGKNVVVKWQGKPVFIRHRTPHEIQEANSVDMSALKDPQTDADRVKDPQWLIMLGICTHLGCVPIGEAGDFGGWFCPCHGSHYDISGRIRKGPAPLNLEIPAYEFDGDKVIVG

T2: yBcs1 (Bcs1 heptamer) (Saccharomyces cerevisiae, UniProt P32839)
T2 construct: full length 1-456, N-terminal 6xHis-FLAG-3C tag (cleavage not described), expressed in S. cerevisiae W303 bcs1delta, digitonin-solubilised, SEC in GDN, homoheptamer about 700 kDa on BN-PAGE
T2 sequence (P32839 1-456): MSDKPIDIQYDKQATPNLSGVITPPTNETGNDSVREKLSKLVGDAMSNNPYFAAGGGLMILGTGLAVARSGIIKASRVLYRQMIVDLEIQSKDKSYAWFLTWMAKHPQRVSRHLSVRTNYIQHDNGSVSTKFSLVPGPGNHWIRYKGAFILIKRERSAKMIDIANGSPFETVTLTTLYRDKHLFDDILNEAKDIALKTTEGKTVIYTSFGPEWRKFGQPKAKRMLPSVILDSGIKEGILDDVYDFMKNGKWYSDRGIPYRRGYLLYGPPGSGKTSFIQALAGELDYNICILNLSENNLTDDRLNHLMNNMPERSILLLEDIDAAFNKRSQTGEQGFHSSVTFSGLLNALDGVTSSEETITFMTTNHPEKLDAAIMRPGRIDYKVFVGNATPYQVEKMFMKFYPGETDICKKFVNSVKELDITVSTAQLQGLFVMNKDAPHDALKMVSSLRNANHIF


Assays:
[1] = target: T1, Bcs1-ATPγS2-Rip1-FeS; experiment: cryo-EM structure; assay type: binding; settings: Rip1-FeS added before 2 mM ATPγS, 2.5 mM MgCl2, pH 7.5, 25 °C; map only (EMD-51562)
[2] = target: T2, yBcs1 (Bcs1 heptamer); experiment: cryo-EM structure; BN-PAGE shift; assay type: binding; settings: 2 mM ATPγS, 2.5 mM MgCl2, pH 7.5, 25 °C; all seven AAA sites; two states ATPγS1 (9GSN) and ATPγS2 (9GU9)
[3] = target: the molecule itself; experiment: cryo-EM structure; Bcs1 first incubated with Rip1-FeS in BN-buffer with 2.5 mM MgCl2 for 10 min at 25 °C, then 2 mM ATPγS for 10 min; ATPγS2 state

Molecule	cryo-EM structure [1]	cryo-EM structure; BN-PAGE shift [2]	stoichiometry N [3]
Nc1ncnc2c1ncn2[C@@H]1O[C@H](COP(=O)(O)OP(=O)(O)OP(O)(O)=S)[C@@H](O)[C@H]1O [ATPγS]	with all seven ATP-binding pockets exhibiting ATPγS density	ATPγS density was observed in each of the seven protomers as well	–
Bcs1 (yeast Bcs1 heptamer) (enzyme, S. cerevisiae, UniProt P32839 1-456, looked up, Bcs1, S. cerevisiae, YDR375C, residues 1-456 (coding region of the gene); N-terminal 6xHis-FLAG-3C tag; no cleavage with 3C protease is described for Bcs1; AAA ATPase that forms heptameric rings; also called yBcs1; bc1 synthesis 1) MSDKPIDIQYDKQATPNLSGVITPPTNETGNDSVREKLSKLVGDAMSNNPYFAAGGGLMILGTGLAVARSGIIKASRVLYRQMIVDLEIQSKDKSYAWFLTWMAKHPQRVSRHLSVRTNYIQHDNGSVSTKFSLVPGPGNHWIRYKGAFILIKRERSAKMIDIANGSPFETVTLTTLYRDKHLFDDILNEAKDIALKTTEGKTVIYTSFGPEWRKFGQPKAKRMLPSVILDSGIKEGILDDVYDFMKNGKWYSDRGIPYRRGYLLYGPPGSGKTSFIQALAGELDYNICILNLSENNLTDDRLNHLMNNMPERSILLLEDIDAAFNKRSQTGEQGFHSSVTFSGLLNALDGVTSSEETITFMTTNHPEKLDAAIMRPGRIDYKVFVGNATPYQVEKMFMKFYPGETDICKKFVNSVKELDITVSTAQLQGLFVMNKDAPHDALKMVSSLRNANHIF	–	–	7
